Measurements: ChEMBL document CHEMBL1138574, “Regioselective synthesis and stereochemical structure of anti-tumor active dispiro[3H-indole-3,2'-pyrrolidine-3',3''-piperidine]-2(1H),4''-diones” (2009)

Test system: A549
Experiment: Antitumor activity against human A549 cells assessed as cell growth at 10 uM after 48 hrs by sulforhodamine B assay
Format: functional
Conditions: A549, 48 h, read-out: Activity

SMILES	growth at 10 µM [%]
COc1ccc(/C=C2\CN(C)C[C@@]3(C2=O)[C@@H](c2ccccc2)CN(C)[C@@]32C(=O)Nc3ccccc32)cc1	44.4

Test system: HOP-92
Experiment: Antitumor activity against human HOP92 cells assessed as cell growth at 10 uM after 48 hrs by sulforhodamine B assay
Format: functional
Conditions: HOP-92, 48 h, read-out: Activity

SMILES	growth at 10 µM [%]
COc1ccc(/C=C2\CN(C)C[C@@]3(C2=O)[C@@H](c2ccccc2)CN(C)[C@@]32C(=O)Nc3ccccc32)cc1	46.7

Test system: NCI-H226
Experiment: Antitumor activity against human NCI-H226 cells assessed as cell growth at 10 uM after 48 hrs by sulforhodamine B assay
Format: functional
Conditions: NCI-H226, 48 h, read-out: Activity

SMILES	growth at 10 µM [%]
COc1ccc(/C=C2\CN(C)C[C@@]3(C2=O)[C@@H](c2ccccc2)CN(C)[C@@]32C(=O)Nc3ccccc32)cc1	63

Test system: NCI-H23
Experiment: Antitumor activity against human NCI-H23 cells assessed as cell growth at 10 uM after 48 hrs by sulforhodamine B assay
Format: functional
Conditions: NCI-H23, 48 h, read-out: Activity

SMILES	growth at 10 µM [%]
COc1ccc(/C=C2\CN(C)C[C@@]3(C2=O)[C@@H](c2ccccc2)CN(C)[C@@]32C(=O)Nc3ccccc32)cc1	50.4

Test system: NCI-H460
Experiment: Antitumor activity against human NCI-H460 cells assessed as cell growth at 10 uM after 48 hrs by sulforhodamine B assay
Format: functional
Conditions: NCI-H460, 48 h, read-out: Activity

SMILES	growth at 10 µM [%]
COc1ccc(/C=C2\CN(C)C[C@@]3(C2=O)[C@@H](c2ccccc2)CN(C)[C@@]32C(=O)Nc3ccccc32)cc1	52.3

Test system: KM12
Experiment: Antitumor activity against human KM12 cells assessed as cell growth at 10 uM after 48 hrs by sulforhodamine B assay
Format: functional
Conditions: KM12, 48 h, read-out: Activity

SMILES	growth at 10 µM [%]
COc1ccc(/C=C2\CN(C)C[C@@]3(C2=O)[C@@H](c2ccccc2)CN(C)[C@@]32C(=O)Nc3ccccc32)cc1	37.7

Test system: SW-620
Experiment: Antitumor activity against human SW620 cells assessed as cell growth at 10 uM after 48 hrs by sulforhodamine B assay
Format: functional
Conditions: SW-620, 48 h, read-out: Activity

SMILES	growth at 10 µM [%]
COc1ccc(/C=C2\CN(C)C[C@@]3(C2=O)[C@@H](c2ccccc2)CN(C)[C@@]32C(=O)Nc3ccccc32)cc1	47.8

Test system: not listed separately
Experiment: Antitumor activity against human Hs 578T cells assessed as cell growth at 10 uM after 48 hrs by sulforhodamine B assay
Format: functional
Conditions: read-out: Activity

SMILES	growth at 10 µM [%]
COc1ccc(/C=C2\CN(C)C[C@@]3(C2=O)[C@@H](c2ccccc2)CN(C)[C@@]32C(=O)Nc3ccccc32)cc1	74.7

Test system: MCF7
Experiment: Antitumor activity against human MCF7 cells assessed as cell growth at 10 uM after 48 hrs by sulforhodamine B assay
Format: functional
Conditions: MCF7, 48 h, read-out: Activity

SMILES	growth at 10 µM [%]
COc1ccc(/C=C2\CN(C)C[C@@]3(C2=O)[C@@H](c2ccccc2)CN(C)[C@@]32C(=O)Nc3ccccc32)cc1	30.9

Test system: NCI/ADR-RES
Experiment: Antitumor activity against human NCI/ADR-RES cells assessed as cell growth at 10 uM after 48 hrs by sulforhodamine B assay
Format: functional
Conditions: read-out: Activity

SMILES	growth at 10 µM [%]
COc1ccc(/C=C2\CN(C)C[C@@]3(C2=O)[C@@H](c2ccccc2)CN(C)[C@@]32C(=O)Nc3ccccc32)cc1	36.5

Test system: OVCAR-4
Experiment: Antitumor activity against human OVCAR4 cells assessed as cell growth at 10 uM after 48 hrs by sulforhodamine B assay
Format: functional
Conditions: OVCAR-4, 48 h, read-out: Activity

SMILES	growth at 10 µM [%]
COc1ccc(/C=C2\CN(C)C[C@@]3(C2=O)[C@@H](c2ccccc2)CN(C)[C@@]32C(=O)Nc3ccccc32)cc1	52.7

Test system: OVCAR-5
Experiment: Antitumor activity against human OVCAR5 cells assessed as cell growth at 10 uM after 48 hrs by sulforhodamine B assay
Format: functional
Conditions: OVCAR-5, 48 h, read-out: Activity

SMILES	growth at 10 µM [%]
COc1ccc(/C=C2\CN(C)C[C@@]3(C2=O)[C@@H](c2ccccc2)CN(C)[C@@]32C(=O)Nc3ccccc32)cc1	92.5

Test system: OVCAR-8
Experiment: Antitumor activity against human OVCAR8 cells assessed as cell growth at 10 uM after 48 hrs by sulforhodamine B assay
Format: functional
Conditions: OVCAR-8, 48 h, read-out: Activity

SMILES	growth at 10 µM [%]
COc1ccc(/C=C2\CN(C)C[C@@]3(C2=O)[C@@H](c2ccccc2)CN(C)[C@@]32C(=O)Nc3ccccc32)cc1	52.4

Test system: SK-OV-3
Experiment: Antitumor activity against human SKOV3 cells assessed as cell growth at 10 uM after 48 hrs by sulforhodamine B assay
Format: functional
Conditions: SK-OV-3, 48 h, read-out: Activity

SMILES	growth at 10 µM [%]
COc1ccc(/C=C2\CN(C)C[C@@]3(C2=O)[C@@H](c2ccccc2)CN(C)[C@@]32C(=O)Nc3ccccc32)cc1	75.6

Test system: HL-60(TB)
Experiment: Antitumor activity against human HL-60(TB) cells assessed as cell growth at 10 uM after 48 hrs by sulforhodamine B assay
Format: functional
Conditions: HL-60, 48 h, read-out: Activity

SMILES	growth at 10 µM [%]
COc1ccc(/C=C2\CN(C)C[C@@]3(C2=O)[C@@H](c2ccccc2)CN(C)[C@@]32C(=O)Nc3ccccc32)cc1	21.5

Test system: MOLT-4
Experiment: Antitumor activity against human MOLT4 cells assessed as cell growth at 10 uM after 48 hrs by sulforhodamine B assay
Format: functional
Conditions: MOLT-4, 48 h, read-out: Activity

SMILES	growth at 10 µM [%]
COc1ccc(/C=C2\CN(C)C[C@@]3(C2=O)[C@@H](c2ccccc2)CN(C)[C@@]32C(=O)Nc3ccccc32)cc1	17.2

Test system: not listed separately
Experiment: Antitumor activity against human […] cells assessed as cell growth at 10 uM after 48 hrs by sulforhodamine B assay
Format: functional
Conditions: read-out: Activity

SMILES	growth at 10 µM [%]
COc1ccc(/C=C2\CN(C)C[C@@]3(C2=O)[C@@H](c2ccccc2)CN(C)[C@@]32C(=O)Nc3ccccc32)cc1	20.7

Test system: 786-0
Experiment: Antitumor activity against human 786-0 cells assessed as cell growth at 10 uM after 48 hrs by sulforhodamine B assay
Format: functional
Conditions: 786-0, 48 h, read-out: Activity

SMILES	growth at 10 µM [%]
COc1ccc(/C=C2\CN(C)C[C@@]3(C2=O)[C@@H](c2ccccc2)CN(C)[C@@]32C(=O)Nc3ccccc32)cc1	57.2

Test system: A498
Experiment: Antitumor activity against human A498 cells assessed as cell growth at 10 uM after 48 hrs by sulforhodamine B assay
Format: functional
Conditions: A498, 48 h, read-out: Activity

SMILES	growth at 10 µM [%]
COc1ccc(/C=C2\CN(C)C[C@@]3(C2=O)[C@@H](c2ccccc2)CN(C)[C@@]32C(=O)Nc3ccccc32)cc1	32.5

Test system: RXF 393
Experiment: Antitumor activity against human RXF393 cells assessed as cell growth at 10 uM after 48 hrs by sulforhodamine B assay
Format: functional
Conditions: RXF 393, 48 h, read-out: Activity

SMILES	growth at 10 µM [%]
COc1ccc(/C=C2\CN(C)C[C@@]3(C2=O)[C@@H](c2ccccc2)CN(C)[C@@]32C(=O)Nc3ccccc32)cc1	57.8

Test system: SN12C
Experiment: Antitumor activity against human SN12C cells assessed as cell growth at 10 uM after 48 hrs by sulforhodamine B assay
Format: functional
Conditions: read-out: Activity

SMILES	growth at 10 µM [%]
COc1ccc(/C=C2\CN(C)C[C@@]3(C2=O)[C@@H](c2ccccc2)CN(C)[C@@]32C(=O)Nc3ccccc32)cc1	58.4

Test system: TK-10
Experiment: Antitumor activity against human TK10 cells assessed as cell growth at 10 uM after 48 hrs by sulforhodamine B assay
Format: functional
Conditions: TK-10, 48 h, read-out: Activity

SMILES	growth at 10 µM [%]
COc1ccc(/C=C2\CN(C)C[C@@]3(C2=O)[C@@H](c2ccccc2)CN(C)[C@@]32C(=O)Nc3ccccc32)cc1	73.1

Test system: UO-31
Experiment: Antitumor activity against human UO31 cells assessed as cell growth at 10 uM after 48 hrs by sulforhodamine B assay
Format: functional
Conditions: UO-31, 48 h, read-out: Activity

SMILES	growth at 10 µM [%]
COc1ccc(/C=C2\CN(C)C[C@@]3(C2=O)[C@@H](c2ccccc2)CN(C)[C@@]32C(=O)Nc3ccccc32)cc1	40.4

Test system: LOX IMVI
Experiment: Antitumor activity against human LOXIMVI cells assessed as cell growth at 10 uM after 48 hrs by sulforhodamine B assay
Format: functional
Conditions: read-out: Activity

SMILES	growth at 10 µM [%]
COc1ccc(/C=C2\CN(C)C[C@@]3(C2=O)[C@@H](c2ccccc2)CN(C)[C@@]32C(=O)Nc3ccccc32)cc1	65.3

Test system: M14
Experiment: Antitumor activity against human M14 cells assessed as cell growth at 10 uM after 48 hrs by sulforhodamine B assay
Format: functional
Conditions: M14, 48 h, read-out: Activity

SMILES	growth at 10 µM [%]
COc1ccc(/C=C2\CN(C)C[C@@]3(C2=O)[C@@H](c2ccccc2)CN(C)[C@@]32C(=O)Nc3ccccc32)cc1	55.6

Test system: SK-MEL-28
Experiment: Antitumor activity against human SK-MEL-28 cells assessed as cell growth at 10 uM after 48 hrs by sulforhodamine B assay
Format: functional
Conditions: SK-MEL-28, 48 h, read-out: Activity

SMILES	growth at 10 µM [%]
COc1ccc(/C=C2\CN(C)C[C@@]3(C2=O)[C@@H](c2ccccc2)CN(C)[C@@]32C(=O)Nc3ccccc32)cc1	76.3

Test system: UACC-257
Experiment: Antitumor activity against human UACC257 cells assessed as cell growth at 10 uM after 48 hrs by sulforhodamine B assay
Format: functional
Conditions: UACC-257, 48 h, read-out: Activity

SMILES	growth at 10 µM [%]
COc1ccc(/C=C2\CN(C)C[C@@]3(C2=O)[C@@H](c2ccccc2)CN(C)[C@@]32C(=O)Nc3ccccc32)cc1	70.3

Test system: UACC-62
Experiment: Antitumor activity against human UACC62 cells assessed as cell growth at 10 uM after 48 hrs by sulforhodamine B assay
Format: functional
Conditions: UACC-62, 48 h, read-out: Activity

SMILES	growth at 10 µM [%]
COc1ccc(/C=C2\CN(C)C[C@@]3(C2=O)[C@@H](c2ccccc2)CN(C)[C@@]32C(=O)Nc3ccccc32)cc1	47.8

Test system: PC-3
Experiment: Antitumor activity against human PC3 cells assessed as cell growth at 10 uM after 48 hrs by sulforhodamine B assay
Format: functional
Conditions: PC-3, 48 h, read-out: Activity

SMILES	growth at 10 µM [%]
COc1ccc(/C=C2\CN(C)C[C@@]3(C2=O)[C@@H](c2ccccc2)CN(C)[C@@]32C(=O)Nc3ccccc32)cc1	21

Test system: SF-268
Experiment: Antitumor activity against human SF268 cells assessed as cell growth at 10 uM after 48 hrs by sulforhodamine B assay
Format: functional
Conditions: SF-268, 48 h, read-out: Activity

SMILES	growth at 10 µM [%]
COc1ccc(/C=C2\CN(C)C[C@@]3(C2=O)[C@@H](c2ccccc2)CN(C)[C@@]32C(=O)Nc3ccccc32)cc1	61.8

Test system: SF-539
Experiment: Antitumor activity against human SF539 cells assessed as cell growth at 10 uM after 48 hrs by sulforhodamine B assay
Format: functional
Conditions: SF-539, 48 h, read-out: Activity

SMILES	growth at 10 µM [%]
COc1ccc(/C=C2\CN(C)C[C@@]3(C2=O)[C@@H](c2ccccc2)CN(C)[C@@]32C(=O)Nc3ccccc32)cc1	74

Test system: SNB-19
Experiment: Antitumor activity against human SNB19 cells assessed as cell growth at 10 uM after 48 hrs by sulforhodamine B assay
Format: functional
Conditions: SNB-19, 48 h, read-out: Activity

SMILES	growth at 10 µM [%]
COc1ccc(/C=C2\CN(C)C[C@@]3(C2=O)[C@@H](c2ccccc2)CN(C)[C@@]32C(=O)Nc3ccccc32)cc1	61.6

Test system: SNB-75
Experiment: Antitumor activity against human SNB75 cells assessed as cell growth at 10 uM after 48 hrs by sulforhodamine B assay
Format: functional
Conditions: SNB-75, 48 h, read-out: Activity

SMILES	growth at 10 µM [%]
COc1ccc(/C=C2\CN(C)C[C@@]3(C2=O)[C@@H](c2ccccc2)CN(C)[C@@]32C(=O)Nc3ccccc32)cc1	59.4

Test system: U-251
Experiment: Antitumor activity against human U251 cells assessed as cell growth at 10 uM after 48 hrs by sulforhodamine B assay
Format: functional
Conditions: U-251, 48 h, read-out: Activity

SMILES	growth at 10 µM [%]
COc1ccc(/C=C2\CN(C)C[C@@]3(C2=O)[C@@H](c2ccccc2)CN(C)[C@@]32C(=O)Nc3ccccc32)cc1	52.1

Test system: Rattus norvegicus
Experiment: Antiinflammatory activity in Wister albino rat assessed as inhibition of carrageenan-induced paw oedema at 50 mg/kg, ip administered 1 hr before carrageenan challenge measured after 4 hrs of induction of inflammation relative to control
Format: functional
Conditions: route intraperitoneal

SMILES	inhibition in vivo at 50 mg/kg [%]
COc1ccc(/C=C2\CN(C)C[C@@]3(C2=O)[C@@H](c2ccccc2)CN(C)[C@@]32C(=O)Nc3ccccc32)cc1	78.7

Test system: Rattus norvegicus
Experiment: Antiinflammatory activity in Wister albino rat assessed as inhibition of carrageenan-induced paw oedema at 50 mg/kg, ip administered 1 hr before carrageenan challenge measured after 4 hrs of induction of inflammation relative to indomethacin
Format: functional
Conditions: route intraperitoneal

SMILES	inhibition in vivo at 50 mg/kg [%]
COc1ccc(/C=C2\CN(C)C[C@@]3(C2=O)[C@@H](c2ccccc2)CN(C)[C@@]32C(=O)Nc3ccccc32)cc1	139
